From patent publication EP4559898A1, “NOVEL IONIZABLE CATIONIC LIPIDS CONTAINING THIOETHER LINKAGE” (AldexChem Kft., priority 2023, dated 2025)

Columns and labels:
[1] = Size, PDI and Zeta potential of LNPs by dynamic light scattering; type: physicochemical; conditions: LNP formulated with tested lipid, diluted in 1x PBS pH 7.4; for Size: DOTAP, DOPE, Resveratrol, DSPE-PEG and mRNA, dialyzed; for Size / PDI: DLS
Procedure: • 1. If needed, prepare stock solutions by solving known amounts of lipid powder into an appropriate solvent. The recommended solvent is ethanol and the recommended concentration is typically in the range 10-50 mM. Higher concentrations are preferred to allow flexibility on mRNA-LNP concentration. • 2. Remove the lipid stock solutions from the -20°C freezer. For long-term storage, -80°C is used. • 3. Check the vials for precipitation, DOPE (CAS# 4004-05-1) (20 mM) and DSPE-PEG (CAS# 474922-26-4) (5mM) may need a 5-30 minute incubation step at 37°C with intermittent vortexing to resuspend all contents. […] As a last resort, lipids may be heated to 50°C to resuspend, time should be kept as short as possible to prevent oxidation or other modifying or degradative processes. • 4. Mix the lipids by vortexing for 2 minutes. • 5. […] Cooling the solution prevent excessive evaporation of ethanol or similar solvents upon opening. • 6. Meanwhile, thaw the RNA samples, including the latest SecNLuc control, by inserting the frozen tube in a room temperature aluminium block. • 7. Prepare for each LNP-formulation with identical mRNA component, an RNA master mix according to Table 1 below in a fresh tube. Use of a master mix allows more precise comparison of lipid formulations relative to each other. Split the master mix over a number of fresh tubes equal to the number of samples + controls. Each tube contains 375 µl of mRNA in 10 mM Citrate pH 4.0. • 8. Prepare for each LNP formulation with identical lipid composition a Lipid master mix according to Table 1 below in a fresh tube, exclude the lipid of interest. Use of a master mix allows more precise comparison of the novel ionizable lipid relative to each other. Split the master mix over a number of fresh tubes equal to the number of samples + controls. Each tube contains 65.5 µl of lipid master mix. • 9. Add the ionizable lipid of interest to the equally divide lipid master mix. Mix well by pipetting up and down. Label the tube according to the ionizable lipid used. • 10. Power on the L1 FM (L1 Formulation Machine uses 2 high-speed syringe pumps to mix lipids in organic solvents with mRNA in acidic aqeuous solution to generate well-defined LNPs. The microfluidic mixing chip involves a dean-type structure performing the high-efficiency mixing at a total flow rate (TFR) of around 12ml/min at a 3:1 mixing ratio) and allow it to do a calibration of motor positions. Table 1: Lipid formulation solution
• 18. Fill a fresh syringe (C) through a blunt 18G stainless steel needle with the previously prepared RNA mixture of step 6. The volume should be approximately 85% of total formulation volume + 25 µl (dead-volume). Make sure to remove all air bubbles by tapping. • 19. Fill a fresh syringe (D) through a blunt 18G stainless steel needle with the Lipid master mix. The volume should be approximately […] of total formulation volume + 25 µl (dead-volume). Again, Make sure to remove all bubbles. • 20. Attach the syringes in the correct orientation, […] • 21. Load the 'Receiving station' with appropriate sized collection containers (2 ml Eppendorf tubes). • 22. Press the microfluidic chip to the back of the machine with your thumb and hold, press the 'Button 1' (40 µg). The L1 FM pushes the total volume from the syringes in a perfect 3:1 (mRNA aqueous: lipid in EtOH) ratio through the microfluidic mixer chip with a total flow-rate of […] (Total flow rate (TFR)). • 23. Remove the sample tube from the 'Receiving station' and label the tube accordingly. • 24. Reset the machine to prepare with the next formulation.
• 25. Transfer the individual formulations to 100 kda MWCO, SpectraPor Biotech dialysis tubing, and close with designated clamps. • 26. Submerge the dialysis bags in beakers filled with 1x Phosphate-buffered saline (PBS buffer, pH 7.4, Gibco cat# 202212-019), stir at 230 RPM at room temperature. • 27. […]

[2] = Cell viability assessment with Resazurin assay; type: cell-based; conditions: human, hela cells, average over all doses, percent of OptiMEM-only control, read-out: Cell Viability % (Average metabolic rate over all doses, Resazurin)
From the text: This protocol is used to determine the metabolic activity of cells as a measure for cell viability after exposure to potentially toxic substances. Resazurin is converted in mitochondria by reduction to resorufin, which has a much higher fluorescence at ~600 nm compared to unconverted resazurin. A lower amount/percentage of conversion is correlated with reduced cellular metabolism and indirectly to cellular death and toxicity. Care must be taken with interpretation of the read-out, as 50% reduction in resazurin conversion may mean 50% reduction of cellular metabolism of 100% alive cells, or 50% of cells dead, and any combination in between.
• 1. Prepare 0.25 mg/ml stock solution resazurin in fresh cell culture medium. Resazurin is auto-reducing over time in solution, especially in medium, and fresh stocks should be prepared every 2-3 days. Stocks should be stored at 4°C and protected from light. For HeLa cells, DMEM/F12 with 10% FCS is used. • 2. Dilute stock solution 10x in fresh cell culture medium to 0.025 mg/ml -> ready for application on cells. For HeLa cells, DMEM/F12 with 10% FCS is used. • 3. Collect 96-well plate and replace cell-culture spent medium with 100 µl per well resazurin solution. Add some resazurin solution for background measurement in wells not containing cells. • 4. Incubate for 50 minutes in incubator at 37°C, 5% CO2, 95% RH. • 5. Transfer resazurin solution to a fresh 96- or 384-well plate. • 6. Measure in plate reader using 540/25 nm (excitation) and 610/40 nm (emission) using standard settings (PTM low/OD-1.0). • 7. Subtract the average background measurement from all samples. Set the average of the negative controls (well receiving OptiMEM only during transfection) to 100% and express all values as percentage of the control activity. Typically, at lower levels of treatment, elevation of metabolic activity is shown, whereas for toxic substances, at toxic concentrations sigmoidal curves can be obtained, with lower activity indicating higher toxicity.

Row | SMILES | Size [1] | Zeta potential [1] | PDI [1] | viability at 24 h [2] [%]
1 | CCCCCCCCC(CCCCCC)C(=O)OCCCCCCN(CCCCO)CCCCCCOC(=O)C(CCCCCC)CCCCCCCC (centres unmarked) [ALC-0315 ref., reference compound] | 131,9 nm | -12,32 mV | 0,007 | 96
2 | CCCCCCCCCCSC(CCCC)C(=O)OCCCCCCN(CCCCO)CCCCCCOC(=O)C(CCCC)SCCCCCCCCCC (centres unmarked) [Example 1, ((4-hydroxybutyl)azanediyl)bis(hexane-6,1-diyl) bis(2-(decylthio)hexanoate)] | 226,7 nm | -10,74 mV | 0,223 | 90
3 | CCCCCCCCC(SCCCCC)C(=O)OCCCCCCN(CCCCO)CCCCCCOC(=O)C(CCCCCCCC)SCCCCC (centres unmarked) [Example 2, ((4-hydroxybutyl)azanediyl)bis(hexane-6,1-diyl) bis(2-(pentylthio)decanoate)] | 188,2 nm | -11,48 mV | 0,136 | 94
4 | CCCCCCCCCCSC(CCCC)C(=O)OCCCCCCCCN(CCCCO)CCCCCCCCOC(=O)C(CCCC)SCCCCCCCCCC (centres unmarked) [Example 3, ((4-hydroxybutyl)azanediyl)bis(octane-8,1-diyl) bis(2-(decylthio)hexanoate)] | 185,7 nm | -9,667 mV | 0,122 | 103
5 | CCCCCCCCCCSC(CCCC)C(=O)OCCCCCCN(CCO)CCCCCCOC(=O)C(CCCC)SCCCCCCCCCC (centres unmarked) [Example 4, ((2-hydroxyethyl)azanediyl)bis(hexane-6,1-diyl) bis(2-(decylthio)hexanoate)] | 149,7 nm | -12,66 mV | 0,071 | 98
6 | CCCCCCCCCCSC(CCCC)C(=O)OCCCCCCN(CCCCCCOC(=O)C(CCCC)SCCCCCCCCCC)CCC1CCCN1C (centres unmarked) [Example 5, ((2-(1-methylpyrrolidin-2-yl)ethyl)azanediyl)bis(hexane-6,1-diyl) bis(2-(decylthio)hexanoate)] | 291,8 nm | -9,117 mV | 0,169 | 97
7 | CCCCCCCCC(SCCCCCCC)C(=O)OCCCCCCN(CCCCO)CCCCCCOC(=O)C(CCCCCCCC)SCCCCCCC (centres unmarked) [Example 6, ((4-hydroxybutyl)azanediyl)bis(hexane-6,1-diyl) bis(2-(heptylthio)decanoate)] | 126,0 nm | -11,48 mV | 0,013 | 101
8 | CCCCCCCCCCSC(CCCCCCCC)C(=O)OCCCCCCN(CCCCO)CCCCCCOC(=O)C(CCCCCCCC)SCCCCCCCCCC (centres unmarked) [Example 7, ((4-hydroxybutyl)azanediyl)bis(hexane-6,1-diyl) bis(2-(decylthio)decanoate)] | 152,7 nm | -15,85 mV | 0,022 | 106
9 | CCCCCCCCCCSC(CCCCCC)C(=O)OCCCCCCN(CCCCO)CCCCCCOC(=O)C(CCCCCC)SCCCCCCCCCC (centres unmarked) [Example 8, ((4-hydroxybutyl)azanediyl)bis(hexane-6,1-diyl) bis(2-(decylthio)octanoate)] | 153,5 nm | -14,32 mV | 0,038 | 104
10 | CCCCCCCSC(CCCCCC)C(=O)OCCCCCCN(CCCCO)CCCCCCOC(=O)C(CCCCCC)SCCCCCCC (centres unmarked) [Example 9, ((4-hydroxybutyl)azanediyl)bis(hexane-6,1-diyl) bis(2-(heptylthio)octanoate)] | 167,3 nm | -13,37 mV | 0,144 | 106
11 | CCCCCCCCCCCCCCSCC(=O)OCCCCCCN(CCCCO)CCCCCCOC(=O)CSCCCCCCCCCCCCCC [Example 10, ((4-hydroxybutyl)azanediyl)bis(hexane-6,1-diyl) bis(2-(tetradecylthio)acetate)] | 203,9 nm | -9,983 mV | 0,014 | 99
